Measured values published in paper PMC9800739, “Epigenetic drugs in somatostatin type 2 receptor radionuclide theranostics and radiation transcriptomics in mouse pheochromocytoma models” (Theranostics, 2023).
Read-outs that look alike come from different tables or passages of the source.

Key:
MPC tumors = type: in vivo, mouse; settings: MPC
Experimental: During anesthesia, animals were continuously warmed at 37°C. […] Animals were sacrificed using CO2 inhalation and cervical dislocation.
(§1) 107 (30%), muscle (0%), kidneys (25%), and liver (35%).
(§2) 116 attenuation. Images were post-processed and analyzed using ROVER (ABX). Three-
118 kidneys (15%), and liver (25%). […]

SSTR2 [1] = tested on: SSTR2; set-up: method as in PMID 26211366; settings: neuroendocrine tumor models; cited from earlier work
[2] = intraperitoneal doses applied; cited from earlier work
Description: The estimated human equivalent doses corresponded to 20‒30% of the clinically applied tumor-suppressive doses in patients, [45]. Lower doses were used, since we focused on the epigenetic modulation effects rather than the cytotoxic effects of VPA and DAC.

BON‑1 xenografts = tested on: BON‑1 xenografts; set-up: method as in PMID 27363833; settings: after treatment with DAC; cited from earlier work
SSTR2 [3] = molecular target: T1, SSTR2 (Mus musculus, UniProt P30875); experiment: Immunoblotting of SSTR2 in cells after epigenetic treatment; type: cell-based
T1 construct: endogenous in cells; host or cells: MPC and MTT mouse pheochromocytoma cells (cell homogenates), untreated or treated with VPA + DAC
Experimental: Cells were seeded into collagen-coated microplates or collagen-coated flasks 24 h before epigenetic treatment (ET) start and treated twice (24 h interval) with VPA and DAC, as single and combination doses, respectively. Treatment effects were investigated two to six days (d) after final ET. Preparation of epigenetic drugs is reported in Supplemental Information 1.1.
Cells seeded into collagen-coated flasks (2.5×10^4/cm^2) were harvested three days after treatment start by incubation with Dulbecco's phosphate-buffered saline containing 2 mmol/L EDTA at 4 °C. Cell pellets were frozen and stored at -70°C. Frozen tumor tissue obtained from allograft mice was cut into 4 × 4 mm pieces.
Protein extraction from cells and tissues, gel electrophoresis, and immunoblotting was performed as described previously with some modifications. In brief, tissue homogenization was performed using the gentleMACS™ dissociator (Miltenyi Biotech, Bergisch Gladbach, Germany). Immunodetection of proteins was performed using the recombinant primary antibodies anti-SSTR2 [UMB1] (Abcam, Cambridge, UK), anti-CHGA [C-20] (Santa Cruz Biotechnology, Heidelberg, Germany), and anti-ACTB [A5316] (Sigma-Aldrich). Densitometric analysis of protein bands was performed using ImageQuant TL (GE Healthcare, Chicago, IL, USA).

[4] = tested on: MPC and MTT allograft mice; experiment: Biodistribution / retention of [64Cu]Cu-DOTA-TATE; type: in vivo, mouse; settings: DAC-treated animals; no relationship with SUV changes in tumors
Experimental: Radiotracer was injected as described for PET imaging. Mice were sacrificed 60 min after radiotracer injection, organs were excised and weighted, and activity in tissue samples was measured using the gamma counter Wizard (PerkinElmer, Waltham, MA, USA). Standardized uptake values were determined.
as §1, §2
118 kidneys (15%), and liver (25%).
119 1.6 Sstr2 promoter methylation analysis
122 Bisulfite Kit (Qiagen, Hilden, Germany). Bisulfite-converted DNA was amplified using a
Amplicon size (195bp) was confirmed
125 Switzerland). Electropherograms were compared to PCR products amplified from bisulfite-
127 an unmethylated 900bp-DNA fragment. The latter was generated by amplification of genomic
129 of primers are provided in (Table S 2).

[5] = [64Cu]Cu-DOTA-TATE, 40‒60 min p.i., day 1 after final ET, control or VPA 250 mg/kg, DAC 1 mg/kg days −3 and 0, mean ± SEM

T1 sequence (P30875 whole entry): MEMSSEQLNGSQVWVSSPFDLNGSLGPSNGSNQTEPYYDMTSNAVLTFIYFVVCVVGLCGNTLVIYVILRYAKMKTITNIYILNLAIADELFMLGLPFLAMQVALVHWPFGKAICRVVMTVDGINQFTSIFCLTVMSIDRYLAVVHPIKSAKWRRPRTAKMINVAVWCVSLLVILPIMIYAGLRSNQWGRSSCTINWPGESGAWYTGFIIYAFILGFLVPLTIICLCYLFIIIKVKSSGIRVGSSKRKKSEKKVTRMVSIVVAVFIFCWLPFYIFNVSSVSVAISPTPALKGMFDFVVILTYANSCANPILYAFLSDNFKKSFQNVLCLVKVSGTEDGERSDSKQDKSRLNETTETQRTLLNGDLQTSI

| SMILES | SUVmean tumor (MPC tumors; [5]) | SUVmax ratio tumor / muscle (MPC tumors; animal 1, 40‒60 min p.i.) | SUVmax tumor (MPC tumors; animal 1, 40‒60 min p.i.) | SUVmean ratio tumor / muscle (MPC tumors; animal 1, 40‒60 min p.i.) | SUVmean tumor (MPC tumors; animal 1, 40‒60 min p.i.) | SUVmax ratio tumor / muscle (MPC tumors; animal 2, 40‒60 min p.i.) | SUVmax tumor (MPC tumors; animal 2, 40‒60 min p.i.) | SUVmean ratio tumor / muscle (MPC tumors; animal 2, 40‒60 min p.i.) | SUVmean tumor (MPC tumors; animal 2, 40‒60 min p.i.) | SUVmax ratio tumor / muscle (MPC tumors; animal 3, 40‒60 min p.i.) | SUVmax tumor (MPC tumors; animal 3, 40‒60 min p.i.) | SUVmean ratio tumor / muscle (MPC tumors; animal 3, 40‒60 min p.i.) | SUVmean tumor (MPC tumors; animal 3, 40‒60 min p.i.) | SUVmax ratio tumor / muscle (MPC tumors; animal 4, 40‒60 min p.i.) | SUVmax tumor (MPC tumors; animal 4, 40‒60 min p.i.) | SUVmean ratio tumor / muscle (MPC tumors; animal 4, 40‒60 min p.i.) | SUVmean tumor (MPC tumors; animal 4, 40‒60 min p.i.) | SUVmax ratio tumor / muscle (MPC tumors; as SUVmean, mean ± SEM) | SUVmax tumor (MPC tumors; as SUVmean, mean ± SEM) | SUVmean ratio tumor / muscle (MPC tumors; as SUVmean, mean ± SEM) | other results |
| --- | --- | --- | --- | --- | --- | --- | --- | --- | --- | --- | --- | --- | --- | --- | --- | --- | --- | --- | --- | --- | --- |
| CCCC(CCC)C(=O)O [VPA, valproic acid] | 6.91 ± 1.19 | 33.0 | 8.80 | 60.0 | 4.22 | 60.8 | 10.8 | 67.2 | 5.61 | 78.3 | 19.7 | 91.2 | 8.55 | 65.2 | 18.5 | 100 | 9.24 | 59.3 ± 9.54 | 14.5 ± 2.73 | 79.6 ± 9.53 | SSTR2 stimulation (effect) (SSTR2 [1]): stimulate SSTR2; time for serum levels to normalize (VPA) [2]: eight |
| Nc1ncn([C@H]2C[C@H](O)[C@@H](CO)O2)c(=O)n1 [DAC, 5-Aza-2'-deoxycytidine] | 7.38 ± 0.74 | 57.8 | 11.5 | 68.2 | 5.09 | 65.6 | 13.9 | 96.7 | 6.74 | 58.7 | 15.3 | 93.2 | 7.52 | 69.1 | 15.2 | 80.6 | 7.99 | 63.8 ± 2.35 | 15.3 ± 1.49 | 88.6 ± 6.39 | increase in [68Ga]Ga-DOTA-TATE uptake (BON‑1 xenografts): approximately 2 fold; SUVmax ratio tumor / muscle (MPC tumors; animal 5, 40‒60 min p.i.): 67.9; SUVmax tumor (MPC tumors; animal 5, 40‒60 min p.i.): 20.6; SUVmean ratio tumor / muscle (MPC tumors; animal 5, 40‒60 min p.i.): 104; SUVmean tumor (MPC tumors; animal 5, 40‒60 min p.i.): 9.57; induction of SSTR2 protein levels and radiotracer uptake, comparison (SSTR2 [3]; MPC and MTT models): more effectively compared to VPA; SSTR2 up-regulation compared to controls (SSTR2/ACTB) (SSTR2 [3]; MPC cells, DAC 10^-6 mol/L, final ET + 2 d): 5.3 fold; activity retention in the liver, effect [4]: significantly higher in DAC-treated animals |
